Three sequences from patent US20160251403A1, “PEPTIDE COMBINATIONS AND USES THEREOF IN TREATING DUST MITE ALLERGY” (ALK-ABELLO A/S, priority 2013, published 2016) can be followed below.

No end group written: not given here.

In data set [1] the target is DRB1_0401 (Homo sapiens, UniProt P01903+P01911, A100K/A169T/F76Y/I96L/K127E/L162R/M171V/N62H/P40V/Q125Y/R42H/S133A/S149N/S66Y/V115G/V209L/W38E). In words: Competitive MHC class II binding assay, DRB1_0401.
For data set [2], the target named is DRB5_0101 (Homo sapiens, UniProt P01903+Q30154). The data set is described as follows: Competitive MHC class II binding assay, DRB5_0101.
The target in data set [3] is DRB1_1201 (Homo sapiens, UniProt P01903+P01911, A100R/A169T/D57E/D86V/F55L/H45Y/K41T/L162R/M171V/P40S/Q125H/Q178H/Q39Y/Q99D/R42G/S66L/T262R/V114A/V67L/W38E/Y59H/Y61H/Y89S). The data set is described as follows: Competitive MHC class II binding assay, DRB1_1201.
The target of data set [4] is DRB1_0301 (Homo sapiens, UniProt P01903+P01911, A100K/A102G/A103R/A169T/F55Y/I96L/K41T/L162R/M171V/P40S/Q125H/Q178H/Q39Y/R42S/S66N/T106N/T262R/W38E/Y61H). The data set is described as follows: Competitive MHC class II binding assay, DRB1_0301.
Data set [5] has as its target DRB4_0101 (Homo sapiens, UniProt P01903+P13762, G164S). In words: Competitive MHC class II binding assay, DRB4_0101.
Data set [6] addresses DRB1_0802 (Homo sapiens, UniProt P01903+P01911, A100R/A103L/A169T/F76Y/H45Y/I96F/K41T/L162R/M171V/P40S/Q125H/Q178H/Q39Y/Q99D/R218S/R42G/S66Y/V115G/W38E). In words: Competitive MHC class II binding assay, DRB1_0802.
For data set [7], the target named is T1, DPA10103-DPB10201 (Homo sapiens, UniProt P04440+P20036, A65V/A84D/A85E/K98E).
T1 sequence (P20036 29-260): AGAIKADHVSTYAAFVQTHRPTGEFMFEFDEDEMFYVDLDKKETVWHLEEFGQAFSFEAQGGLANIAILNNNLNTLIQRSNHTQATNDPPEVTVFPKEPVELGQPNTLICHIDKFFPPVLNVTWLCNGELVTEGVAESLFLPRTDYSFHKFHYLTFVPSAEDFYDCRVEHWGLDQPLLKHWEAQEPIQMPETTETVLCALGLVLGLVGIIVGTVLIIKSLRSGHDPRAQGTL
T1 sequence (P04440 30-258 A65V/A84D/A85E/K98E): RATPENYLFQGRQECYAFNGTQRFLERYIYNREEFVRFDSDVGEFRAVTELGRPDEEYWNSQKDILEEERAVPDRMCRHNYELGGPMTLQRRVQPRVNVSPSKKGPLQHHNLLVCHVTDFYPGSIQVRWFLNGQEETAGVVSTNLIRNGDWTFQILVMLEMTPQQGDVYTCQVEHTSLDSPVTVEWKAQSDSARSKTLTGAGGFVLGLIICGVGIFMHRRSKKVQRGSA
The data set is described as follows: Competitive MHC class II binding assay, DPA10103-DPB10201.

The target in data set [8] is DRB1_1101 (Homo sapiens, UniProt P01903+P01911, A100R/A169T/A87E/I96F/K41T/L162R/M171V/P40S/Q125H/Q178H/Q39Y/Q99D/R42S/S66Y/T262R/V115G/W38E). The data set is described as follows: Competitive MHC class II binding assay, DRB1_1101.
Data set [9] concerns the target DRB1_1302 (Homo sapiens, UniProt P01903+P01911, A100E/A169T/K41T/L162R/M171V/P40S/Q125H/Q178H/Q39Y/Q99D/R42S/S66N/T262R/V115G/W38E/Y61H). In words: Competitive MHC class II binding assay, DRB1_1302.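 Further: purified HLA class II protein incubated two to four days with a radiolabeled reference binder and test peptide at six concentrations over a 100,000-fold range, complex-bound radioactivity counted.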
The target of data set [10] is DRB1_0101 (Homo sapiens, UniProt P01903+P01911, A100R/D57E/F55L/F60I/F76Y/I96L/L162R/M171V/P40L/Q125E/R42F/V115G/Y59C). In words: Competitive MHC class II binding assay, DRB1_0101.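 Further: competition against a radiolabeled probe peptide (0.1–1 nM) for purified HLA class II protein over 2–4 days, bound counts read after antibody capture, six competitor levels across 100,000-fold.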
The target of data set [11] is DRB1_0405 (Homo sapiens, UniProt P01903+P01911, A100R/A169T/D86S/F76Y/I96L/K127E/L162R/M171V/N62H/P40V/Q125Y/R42H/S133A/S149N/S66Y/V115G/V209L/W38E). The data set is described as follows: Competitive MHC class II binding assay, DRB1_0405.
Data set [12] addresses DRB1_0701 (Homo sapiens, UniProt P01903+P01911, A100R/A102G/A103Q/D57E/D86V/E43K/F76Y/K127E/L162R/M171V/P40G/Q125H/Q99D/R33Q/R42Y/R54Q/S133A/S66F/T210M/V115G/Y107V/Y59L/Y89S). The data set is described as follows: Competitive MHC class II binding assay, DRB1_0701.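 Further: displacement of a radiolabeled reference peptide from purified HLA class II protein, with complex-bound radioactivity counted after 2–4 days of incubation and six concentrations spanning a 100,000-fold range.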
In data set [13] the target is T2, DPA10103-DPB10301 (Homo sapiens, UniProt P04440+P20036, A65V/A84D/A85E/E86D/F38Y/G113D/G114E/G40L/I94L/L37V/M105V/M116V/P115A/R125K/T199I).
T2 sequence (P20036 29-260): T1 sequence (P20036 29-260)
T2 sequence (P04440 30-258 L37V/F38Y/G40L/A65V/A84D/A85E/E86D/I94L/M105V/G113D/G114E/P115A/M116V/R125K/T199I/V234M): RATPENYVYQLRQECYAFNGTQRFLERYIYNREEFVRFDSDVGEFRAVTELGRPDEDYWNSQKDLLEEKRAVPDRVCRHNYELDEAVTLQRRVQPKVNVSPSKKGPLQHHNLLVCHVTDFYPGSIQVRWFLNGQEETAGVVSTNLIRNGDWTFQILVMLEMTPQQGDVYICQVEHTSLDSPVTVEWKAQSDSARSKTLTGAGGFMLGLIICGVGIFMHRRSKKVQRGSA
In words: Competitive MHC class II binding assay, DPA10103-DPB10301.

In data set [14] the target is DRB1_0901 (Homo sapiens, UniProt P01903+P01911, A100R/A103E/D57H/D86V/F55Y/F60I/F76Y/I96F/K127E/L162R/M171V/P40D/Q125H/Q99R/R33Q/R42F/S133A/S66N/T210M/V115G/W38K/Y107V/Y59G/Y89S). The data set is described as follows: Competitive MHC class II binding assay, DRB1_0901.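 Further: displacement of a radiolabeled probe peptide from purified HLA class II protein, bound counts read after two to four days incubation, six concentrations spanning 100,000-fold, unlabeled probe as reference.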
The target in data set [15] is DRB1_1501 (Homo sapiens, UniProt P01903+P01911). In words: Competitive MHC class II binding assay, DRB1_1501.
For data set [16], the target named is DQA10102-DQB10602. The data set is described as follows: Competitive MHC class II binding assay, DQA10102-DQB10602. The settings on record: read-out: HLA-DQA10102-DQB10602; positive binding at cutoff 1000 nM.
The target of data set [17] is DRB3_0202 (Homo sapiens, UniProt P01903+P79483, A212P/D57E/F66Y/L67A/R103Q/R218S/R40L/S89Y/T80R/V86D/Y55F/Y59H). In words: Competitive MHC class II binding assay, DRB3_0202.
Data set [18] can be described thus: Solubility of peptides in aqueous solutions at different pH (visual inspection, OD, HPLC). Format: physicochemical. Conditions: pH 7, visual inspection. From the text: This example describes modifications of parent peptides to improve the aqueous solubility, in particular to increase the solubility in an aqueous solution having pH in a physiologically acceptable range, e.g. from 6 to 8. Solubility is closely related to the ratio between hydrophilic and hydrophobic amino acid residues and the net charge state of the peptide. Peptides have zero net charge at pH=pI, and would be expected to show the lowest solubility at this pH. […] The solubility of these peptides was increased at pH values outside the physiological range (data not shown).
Peptides were tested for their ability to dissolve in aqueous solutions at different pH values. In short, each of the peptides were dissolved in water (pH about 5-6), hydrochloride solution at pH 2 (10 mM HCl), acetate buffer with pH 5 (20 mM acetate and 140 mM sodium chloride), phosphate buffer with pH 7 (20 mM phosphate and 140 mM sodium chloride) or bistrispropate buffer with pH 9 (20 mM bitrispropane and 140 mM sodium chloride, respectively, to produce a final molar concentration of the peptide of about 0.25 mM or 1 mM. Optionally, about 20% DMSO may be part of the solution. For comparison reasons, peptides were also dissolved in acetonitrile or DMSO. The solutions were inspected visually before and after centrifugation for turbidity, presence of particles/aggregates. In addition, presence of turbidity/particles/aggregates were detected by optical density (OD), but might also be detected by size-exclusion chromatography. Sub-visual particles may also be detected by dynamic light scattering (DLS) analysis. The solubility and stability of each peptide were also investigated using HPLC, e.g. RP-HPLC. For example, each of the solutions were injected onto the HPLC and the peak height or peak area of each of the peptides were compared to the corresponding peptide of a chromatogram of peptides dissolved in acetonitrile or DMSO—as peptides were assumed to be fully dissolved and stable in these solvents.

Data set [19] addresses DQA10501-DQB10201 (Homo sapiens, UniProt P01909+P01920, A45G/A70V/D89A/E106A/E77G/E98D/H199R/L107V/N214S/P84L/P87L/T103K/T109R/T172A/T60S/V78E/V99I/Y58L/Y62S/Y69I/Y79F). In words: Competitive MHC class II binding assay, DQA10501-DQB10201.
The subject of data set [20] is DQA10401-DQB10402. The data set is described as follows: Competitive MHC class II binding assay, DQA10401-DQB10402.
For data set [21], the target named is DRB3_0101 (Homo sapiens, UniProt P01903+P79483). The data set is described as follows: Competitive MHC class II binding assay, DRB3_0101.

Turning to “DLRQMRTVTPIRMQGGSGS [HDM203B, reference compound]”, the IC50 in [1], in data set [2], in [3], in data set [4], in data set [5] and in [6] was less than 1000 nM throughout. Besides, the IC50 in data set [7], in data set [8], in data set [9], in data set [10], in data set [11] and in [12] was less than 1000 nM throughout. Moreover, the IC50 in data set [13], in [14] and in [15] was less than 1000 nM throughout.

Take IEYIQQNGVVEERSYPYVAR [pep-075]: the IC50 in [16], in data set [3], in data set [4], in data set [17], in data set [9] and in [10] was less than 1000 nM each time. Also, the IC50 in [11] is less than 1000 nM; in data set [19], less than 1000 nM; in [20] (read-out: HLA-DQA10401-DQB10402, positive binding at cutoff 1000 nM), less than 1000 nM; in data set [21], less than 1000 nM. For the same sequence, the “binding to HLA Class II allele DRB3_0202” value in data set [17] (as shown in Table 16a) is reported as “binds to at least the same alleles as peptide 041”. For the same sequence, the “Solubility at pH 7 (visual inspection)” value in [18] is on record as “Turbid”. For the same sequence, in data set [9] (as shown in Table 16a), the “binding to HLA Class II allele DRB1_1302” value was “binds to at least the same alleles as peptide 041”. Moreover, the “binding to HLA Class II allele DQA10501-DQB10201” value in data set [19] (as shown in Table 16a) is reported as “binds to at least the same alleles as peptide 041”. Besides, in data set [20] (as shown in Table 16a), the “binding to HLA Class II allele DQA10401-DQB10402” value is recorded as “binds to at least the same alleles as peptide 041”. Also, in data set [21] (as shown in Table 16a), the “binding to HLA Class II allele DRB3_0101” value is “binds to at least the same alleles as peptide 041”.

For QESYYRYVAREQSSRR [pep-122], the IC50 in data set [1], in data set [2], in [3], in [6], in data set [17] and in data set [8] was less than 1000 nM in each case. The IC50 in data set [10], in data set [11], in [12], in data set [13] and in data set [14] was less than 1000 nM each time.
